Assay results published in US20240264169A1, “METHOD FOR THE QUANTIFICATION OF THE ACTIVATION STATE OF G-PROTEIN-COUPLED RECEPTORS IN A HUMAN BIOLOGICAL SAMPLE” (ALDA S.R.L., priority 2021, published 2024).
Where “and” joins values, the source holds several entries; their conditions need not be identical. Equal entries are not always repeated.

Tests used:
Assay type in all cases: cell-based
CXCR1//ArrB interaction = molecular target: T1, CXCR1//ArrB interaction (Homo sapiens, UniProt P25024); test: FRET assay (intensity-based acceptor photobleaching) of CXCR1//β-Arrestin interaction on neutrophils
T1 construct: expression and localization of endogenous CXCR1 protein; endogenous in cells; host or cells: human neutrophils in venous blood aliquots
T1 sequence (P25024 1-350): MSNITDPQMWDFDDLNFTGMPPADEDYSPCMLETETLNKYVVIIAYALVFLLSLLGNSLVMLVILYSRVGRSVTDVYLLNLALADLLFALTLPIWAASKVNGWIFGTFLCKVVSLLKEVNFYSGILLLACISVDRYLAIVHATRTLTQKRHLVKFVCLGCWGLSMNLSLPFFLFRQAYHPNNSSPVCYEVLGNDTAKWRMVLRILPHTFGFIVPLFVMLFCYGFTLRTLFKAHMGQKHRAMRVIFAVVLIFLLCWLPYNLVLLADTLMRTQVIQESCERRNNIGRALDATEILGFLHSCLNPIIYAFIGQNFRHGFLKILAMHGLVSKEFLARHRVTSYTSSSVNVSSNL
Source text: Next, the measured FRET efficiency is related to the abundance of the interaction between the donor and acceptor probe within each pixel of the image. Detection of the FRET signal consists of a precise estimate of the fluorescent emission (FD) intensity or emission decay rate (<τ>) of the donor probe. The quantization of FD in a biological sample appears to be inexpensive in terms of complexity and cost of the instrumentation required for analysis. […] Below is the formula used to calculate the FRET (pixel by pixel) efficiency shown in the images reported in this study:
(§1) Precisely this last aspect, however, offers added value in monitoring the interaction of the receptor with β-Arrestin. Indeed, in this scenario, the maximum interaction value between these two proteins is recorded 8 to 12 minutes after the interleukin stimulus. The measurement of the activation state occurs within a defined time window, the beginning of which coincides with the time of sampling (FIG. 1a). By subjecting the blood aliquots to a stasis under controlled conditions, it is possible to obtain a homogeneous activation state among the neutrophils in the control sample, estimated by quantifying the amount of receptor that is bound to β-Arrestin at the time of fixation. […] The amount of activation is obtained by difference with the basal state, which corresponds to the amount of desensitized receptor found after the same time interval in each experiment. The correlation between FRET signal intensity and morphology (FIG. 4c) allows us to assess the effectiveness of the inhibitor: the change in morphology from spherical to polarized in the presence of high FRET, indicates the persistence of a G-protein pathway-mediated signal.
Next, the FRET assay for measuring the CXCR1//ArrB interaction on neutrophils was repeated, operating in triplicate (FIG. 4). A first control sample, CTRL-DMSO, corresponds to the sample set at 30 minutes; this time is required for neutrophils to return to a resting state after mechanical activation due to handling. […] Values reported refer to the measurements on 15 neutrophil cells of donor fluorophore de-quenching following acceptor photo-bleaching, obtained by the INTENSITY-BASED ACCEPTOR PHOTOBLEACHING approach (FIG. 7 and Table 1).
The CTRL of each triplicate consists of a sister sample subjected to the same treatment conditions unless drug addition. Exclusively for the time zero sample, fixation was carried out at about one minute after sampling, and the analysis reported high FRET probably due to heterologous desensitization. For all remaining samples, fixation was performed at 30 minutes after sampling, an interval of time during which the drug was allowed to act, directly added to the tube of each treated sample.

[1] = molecular target: T2, CXCR1-βArrestin2 interaction (Homo sapiens, UniProt P25024); test: FRET-FLIM donor probe lifetime measurement, anti-CXCR1 donor / anti-βArrestin2 acceptor, neutrophils; settings: Reparixin 100 μg/ml; one value per cell (3 cells); Levenberg-Marquardt fitting; Control 2.57-2.63, Donor only 2.64-2.67
T2 construct: expression and localization of endogenous CXCR1 protein; endogenous in cells; host or cells: human neutrophils in venous blood aliquots
T2 sequence (P25024 1-350): T1 sequence (P25024 1-350)
Source text: The fitting model used is bi-exponential and the measurement is repeated for each individual neutrophil: a global decay curve consisting of the summation of the curves recorded in all the pixels that make up the analyzed cell is generated for each of them. The rate of decay of the fluorescence intensity of the total donor population (bound and unbound receptor) is of the exponential type and follows the trend described by the formula:
The decay acquired in each region of interest (ROI) corresponds to the lifetime obtained from the cumulative histogram consisting of the summation of all pixels contained in the ROL The histogram is interpolated by bi-exponential fitting, and the lifetime calculated on the two components (A1 and A2) with the following equation:
The expression used to calculate the FRET efficiency by using the FLIM technique is as follows:
where tD is the absolute donor lifetime, measured in a sample containing only the donor probe, and tD-A is the donor lifetime in a sample subjected to the same condition, in which both donor and acceptor probes are present.
To correctly interpret the following graph (FIG. 8b), remember that the presence of interaction induces a lowering of the donor probe lifetime; this lowering is quantified by the slope of the decay curve, which corresponds to the donor probe lifetime (τ). The value of τ can be derived numerically from the nonlinear fitting of the decay curve.
The Levenberg-Marquardt algorithm, which is based on the method of least squares, was used for nonlinear fitting of the recorded decay curves.
The values of r extrapolated from the nonlinear fitting by using the Levenberg-Marquardt algorithm were further verified using the maximum likelihood estimation (MLE) method, which allows for greater accuracy in evaluating the parameters obtained from the statistical distribution of photonic phenomena (such as the decay of a fluorophore's emission), as these phenomena are generally governed by a Poissonian distribution. The values shown in the table are those calculated exclusively by the Levenberg-Marquardt algorithm.

human neutrophils [2] = test: Neutrophil morphology upon fixation (spherical vs polarized)
Experimental: as §1, with “signal. In contrast, the presence of high FRET in perfectly spherical cells (indistinguishable from those observed in the control aliquot), is an indication of high desensitization of the receptor by β-Arrestins, and thus the inhibitor is able to promote deactivation of the receptor, with the effect of a drastic reduction in G-protein-mediated signaling.” for “signal.”
Thus, the treatment with allosteric inhibitors generates high receptor desensitization. However, if IL-8 treatment is conducted in the presence of allosteric inhibitor, neutrophil morphology is maintained spherical even under stimulated conditions. […] In the quiescent or competitive inhibition condition, the neutrophil consistently retains a spherical morphology.
The most striking difference between the condition in which the sample is treated with IL-8 and the condition in which the sample is pretreated with inhibitor and then subjected to the IL-8 stimulus concerns morphology. […]

CXCR1-GaI interaction = molecular target: T3, CXCR1-GaI interaction (Homo sapiens, UniProt P25024); test: FRET-FLIM analysis of the CXCR1-GaI interaction pair; settings: in the presence of IL-8 (10 nM)
T3 construct: expression and localization of endogenous CXCR1 protein; endogenous in cells; host or cells: human neutrophils
T3 sequence (P25024 1-350): T1 sequence (P25024 1-350)
Experimental: The receptor activation status was measured through the quantification of CXCR1-GaI and CXCR1-Arrestin interactions. […] In this circumstance, the minimum value of FRET is assumed, which serves as an internal control.

human neutrophils [3] = test: Cell count after treatment of blood sample
Source text: Another aspect that strongly distinguishes the sample activated with IL8 alone and the IL8_+_navarixin sample is the cell count after treatment.

[4] = REPARIXIN 100 ugmL-1, 30 min, 15 neutrophil cells, each column one of triplicate samples
[5] = IL-8 treatment in the presence of allosteric inhibitor

Row | Molecule | FRET (donor de-quenching after acceptor photobleaching), Mean (CXCR1//ArrB interaction; [4]) | FRET (donor de-quenching after acceptor photobleaching), Median (CXCR1//ArrB interaction; [4]) | FRET in analyzed cells (CXCR1//ArrB interaction; Reparixin 40 ug/ml, two of the three samples) | FRET versus control (interaction with β-Arrestins) (CXCR1//ArrB interaction; combined treatment IL-8 + allosteric inhibitor) | FRET in analyzed cells (CXCR1//ArrB interaction; highest concentration of Reparixin (100 μg/mL), 30 min) | τ (donor probe lifetime) [1] | neutrophil morphology (human neutrophils [2]; [5]) | amount of receptor in the desensitized state (in complex with b-Arrestin2) (CXCR1//ArrB interaction; IL-8 stimulation, in presence and absence of allosteric modulator) | time of maximum receptor-β-Arrestin interaction after stimulus (CXCR1//ArrB interaction; after the interleukin stimulus) [min] | signal lifetime versus non-activated control (CXCR1-GaI interaction) | neutrophil morphology (human neutrophils [2]; IL-8 treatment, inhibitor absent) | cells found at the time of fixation relative to control (human neutrophils [3]; sample stimulated with IL-8 alone) | number of cells compared to control (human neutrophils [3]; sample pretreated with inhibitor, then stimulated with IL-8)
1 | CC(C)Cc1ccc([C@@H](C)C(=O)NS(C)(=O)=O)cc1 [Reparixin] | 32.35 and 27.67 and 32.60 | 38.96 and 21.92 and 35.03 | many cells with FRET values equal to the control | higher than control | high in many cells | 2.05 and 2.12 and 2.1 | spherical |  |  |  |  |  | 
2 | interleukin-8 [IL-8] |  |  |  |  |  |  |  | significant increase | 8 to 12 | decrease in signal lifetime | polarized | about 20% | 
3 | CC[C@@H](Nc1c(Nc2cccc(C(=O)N(C)C)c2O)c(=O)c1=O)c1ccc(C)o1 [Navarixin] |  |  |  |  |  |  | spherical |  |  |  |  |  | same number of cells
